Measured values reported in patent US20140363838A1, “MICROPERFUSION IMAGING PLATFORM” (William Marsh Rice University, priority 2013, published 2014).
≈ marks a conversion by molar mass, not a printed value.

Key:
MDA-MB-468 cells [1] = assay: equivalent nuclear assay (fixed cells, DAPI staining) in monolayer
[2] = tested on: cells on spheroid microcarrier; assay: doxorubicin uptake, chip versus plate/static, by Z depth; format: cell-based
MDA-MB-468 cells [3] = assay: live/dead (calcein-AM/EthD-1) viability assay, microcarrier format on pBNC device; format: cell-based; conditions: Homo sapiens, BNC assays, microcarriers, 24 hour doxorubicin exposure, composite of 3 assays, read-out: Computed IC50 of composite dose curve (percent viability from EthD-1 intensity)
Experimental: Microcarriers cultured with MDA-MB-468 cells were harvested after 5-6 days of static culture with regular media exchanges every 48 hours. Doxorubicin solutions were prepared in fresh, warm media in volumes of 1 mL and added to aliquots of about 200 μL microcarriers and statically incubated for 24 hours at 37° C. Each aliquot was transferred to a sterile 2 ml micro-centrifuge tube where the microcarriers were allowed to settle. After supernatant was removed, microcarriers were rinsed in warm PBS, and incubated in fresh media at 37° C. until assayed. Negative control microcarriers were prepared by replacing this media with 70% methanol and incubating at room temperature for 30 minutes, and then suspended in PBS.
For each assay performed in triplicate (on a prior card embodiment with outlets at the bottom of the card), 4 negative control microcarriers were placed in the 4 outer corners of a 3×4 array of micro-containers through careful manipulation with precision forceps. […]
Images were acquired using a monochrome DVC camera connected to an Olympus BX-2 microscope (Center Valley, Pa.) with a 4× objective at a single focal plane at the top of the microcarriers. […] Intensities for both FITC and TxRed channels were measured separately, using a custom written ImageJ macro that extracts the average of the maxima of a series of line profile scans down each microcarrier. […]

MDA-MB-468 cells [4] = assay: nuclear analysis (fixed cells, DAPI staining) of microcarriers on pBNC platform
MDA-MB-468 cells [5] = assay: live/dead (calcein-AM/EthD-1) viability assay, monolayer 96-well plate, fluorescence plate reader; format: cell-based; conditions: Homo sapiens, 96-well plate assays, 24 hour doxorubicin exposure, composite of 3 assays, read-out: Computed IC50 of composite dose curve (percent viability from EthD-1 intensity)
Experimental: Negative and positive controls were included as columns in each plate for the 96-well plate assays. Four negative control microcarriers were included in each assay on the BNC platform and one positive control assay served as the positive control for determining percent viability. Dose curves were plotted using a 5-parameter curve fitting algorithm in MATLAB (MATHWORKS®).
An equivalent viability assay was performed using standard 96-well plates for comparative purposes. Cells were seeded on 3, 96-well plates (CORNING®) at a final seeding density of about 10,000 cells per well. Plates were incubated at 37° C., 5% CO2 for 72 hours before media was exchanged for doxorubicin-containing media and incubated for an additional 24 hours. Negative control columns on each plate were prepared by replacing media with 70% methanol and incubating for 30 minutes at 37° C. Before imaging, all media was removed and cells were washed with warm PBS and replaced with a calcein-AM/EthD-1 solution with the same concentration as in the pBNC assay. […] A single point scan was performed on each well at excitation/emission wavelengths (nm) of 485/530 for calcein-AM and 530/645 for EthD-1.

## COc1cccc2c1C(=O)c1c(O)c3c(c(O)c1C2=O)C[C@@](O)(C(=O)CO)C[C@@H]3O[C@H]1C[C@H](N)[C@H](O)[C@H](C)O1 [doxorubicin]
MDA-MB-468 cells [1]; 100 μg/mL doxorubicin, 24 hour exposure, monolayer
  cells remaining attached (identified nuclear counts): no monolayer cells remained attached
MDA-MB-468 cells [1]; monolayer format, increasing doxorubicin concentration
  average uncorrected nuclear compactness: increase in the average uncorrected compactness
MDA-MB-468 cells [1]; monolayer platform, across 10.000-fold doxorubicin concentration range
  average nuclear area: increases for low concentrations of doxorubicin and decreases for higher concentrations
MDA-MB-468 cells [1]; monolayer platform, high doxorubicin concentrations (10 μg/mL)
  distribution of average DAPI intensity of nuclei: shift in the distribution of DAPI intensities towards lower intensities
[2]; 2 hours incubation, observed for both chip and plate platforms
  doxorubicin penetration into spheroid microcarrier cell layers (z-slices): only able to penetrate through a few outer layers of cells
[2]; chip vs static, FIG. 14
  doxorubicin uptake, chip compared with static: highly comparable
MDA-MB-468 cells [3]
  IC50: 4 µg/mL (≈ 7.36 µM)
MDA-MB-468 cells [4]; 100 μg/mL doxorubicin, 24 hour exposure, Cytodex I microcarriers
  cells remaining attached (identified nuclear counts): some cells remained attached
MDA-MB-468 cells [4]; increasing doxorubicin concentrations, both counting methods
  total cell population (DAPI-stained nuclei / live-dead cell counting): decrease in total cell population
MDA-MB-468 cells [4]; microcarrier format, increasing doxorubicin concentration
  average uncorrected nuclear compactness: increase in the average uncorrected compactness
MDA-MB-468 cells [4]; microcarrier platform, across 10.000-fold doxorubicin concentration range
  average nuclear area: increases for low concentrations of doxorubicin and decreases for higher concentrations
MDA-MB-468 cells [4]; microcarrier platform, high doxorubicin concentrations (10 μg/mL)
  distribution of average DAPI intensity of nuclei: shift in the distribution of DAPI intensities towards lower intensities
MDA-MB-468 cells [5]
  IC50: 10 µg/mL (≈ 18.4 µM)
